{"source": "ChEMBL document CHEMBL6134869", "about": "“Silaproline-bearing nirmatrelvir derivatives are potent inhibitors of the SARS-CoV-2 main protease highlighting the value of silicon-derivatives in structure-activity-relationship studies” (Eur J Med Chem, 2025)", "key": {"Vero C1008": {"tested_on": "Vero C1008", "assay": "Cytotoxicity against African green monkey Vero E6 cells", "type": "toxicity, cell-based", "settings": "chlorocebus sabaeus"}, "SARS-CoV-2": {"tested_on": "SARS-CoV-2", "assay": "Antiviral activity against SARS-CoV-2 MT007544.1 infected in African green monkey Vero E6 cells pre infected with virus for 1 hrs followed by incubation with cells for 2 hrs and measured after 20 hrs by ELISPOT reader based analysis", "type": "functional, organism-based", "settings": "Severe acute respiratory syndrome coronavirus 2, MT007544.1, Vero C1008"}, "[1]": {"assay": "Inhibition of recombinant SARS-CoV-2 main protease using ALNDFSNSGSDVLYQPPQTSITSAVLQSGFRKMAFPS-NH2 as substrate preincubated for 15 mins followed by substrate addition and measured after 30 mins by Solid phase extraction coupled with MS analysis", "design": "species or system Severe acute respiratory syndrome coronavirus 2"}, "[2]": {"tested_on": "Severe acute respiratory syndrome coronavirus 2", "assay": "Inhibition of recombinant SARS-CoV-2 main protease assessed as Kinact/Ki using ALNDFSNSGSDVLYQPPQTSITSAVLQSGFRKMAFPS-NH2 as substrate preincubated for 15 mins followed by substrate addition and measured after 30 mins by Solid phase extraction coupled with MS analysis", "settings": "time 45.0 min"}}, "data": [{"smiles": "COC(=O)N[C@H](C(=O)N1C[Si](C)(C)C[C@H]1C(=O)N[C@H](C#N)C[C@@H]1CCNC1=O)C(C)(C)C", "values": [{"measurement": "Activity", "setting": "Vero C1008", "result": "Non-toxic"}, {"measurement": "EC50", "setting": "SARS-CoV-2", "result": "> 50", "unit": "µM"}, {"measurement": "IC50", "setting": "[1]", "result": 59, "unit": "nM"}]}, {"smiles": "COC(=O)N[C@H](C(=O)N1CC(C)(C)C[C@H]1C(=O)N[C@H](C#N)C[C@@H]1CCNC1=O)C(C)(C)C", "values": [{"measurement": "Activity", "setting": "Vero C1008", "result": "Non-toxic"}, {"measurement": "EC50", "setting": "SARS-CoV-2", "result": "> 50", "unit": "µM"}, {"measurement": "IC50", "setting": "[1]", "result": 30, "unit": "nM"}]}, {"smiles": "C#C[C@H](C[C@@H]1CCNC1=O)NC(=O)[C@@H]1C[Si](C)(C)CN1C(=O)[C@@H](NC(=O)OC)C(C)(C)C", "values": [{"measurement": "EC50", "setting": "SARS-CoV-2", "result": "> 50", "unit": "µM"}, {"measurement": "K", "setting": "[2]", "result": 3640, "unit": "M⁻¹ s⁻¹"}, {"measurement": "IC50", "setting": "[1]", "result": 340, "unit": "nM"}]}, {"smiles": "C#C[C@H](C[C@@H]1CCNC1=O)NC(=O)[C@@H]1C[Si](C)(C)CN1C(=O)[C@@H](NC(=O)C(F)(F)F)C(C)(C)C", "values": [{"measurement": "EC50", "setting": "SARS-CoV-2", "result": 46, "unit": "µM"}, {"measurement": "IC50", "setting": "[1]", "result": 280, "unit": "nM"}]}, {"smiles": "C#C[C@H](C[C@@H]1CCNC1=O)NC(=O)[C@@H]1CC(C)(C)CN1C(=O)[C@@H](NC(=O)OC)C(C)(C)C", "values": [{"measurement": "EC50", "setting": "SARS-CoV-2", "result": "> 50", "unit": "µM"}, {"measurement": "IC50", "setting": "[1]", "result": 320, "unit": "nM"}]}, {"smiles": "C#C[C@H](C[C@@H]1CCNC1=O)NC(=O)[C@@H]1[C@@H]2[C@H](CN1C(=O)[C@@H](NC(=O)C(F)(F)F)C(C)(C)C)C2(C)C", "values": [{"measurement": "K", "setting": "[2]", "result": 597, "unit": "M⁻¹ s⁻¹"}]}, {"smiles": "COC(=O)N[C@H](C(=O)N1C[Si](C)(C)C[C@H]1C(=O)N[C@H](C#Cc1ccccc1)C[C@@H]1CCNC1=O)C(C)(C)C", "values": [{"measurement": "EC50", "setting": "SARS-CoV-2", "result": "> 50", "unit": "µM"}, {"measurement": "IC50", "setting": "[1]", "result": "> 50000", "unit": "nM"}]}, {"smiles": "COC(=O)N[C@H](C(=O)N1C[Si](C)(C)C[C@H]1C(=O)N[C@H](C#N)C[C@@H]1CCNC1=O)C1CCCCC1", "values": [{"measurement": "IC50", "setting": "[1]", "result": 113, "unit": "nM"}]}, {"smiles": "CC(C)(C)[C@H](NC(=O)C(F)(F)F)C(=O)N1C[C@H]2[C@@H]([C@H]1C(=O)N[C@H](C#N)C[C@@H]1CCNC1=O)C2(C)C", "note": "[NIRMATRELVIR]", "values": [{"measurement": "Activity", "setting": "Vero C1008", "result": "Non-toxic"}]}, {"smiles": "CC(C)(C)[C@H](NC(=O)C(F)(F)F)C(=O)N1C[Si](C)(C)C[C@H]1C(=O)N[C@H](C#N)C[C@@H]1CCNC1=O", "values": [{"measurement": "Activity", "setting": "Vero C1008", "result": "Non-toxic"}, {"measurement": "EC50", "setting": "SARS-CoV-2", "result": 24, "unit": "µM"}, {"measurement": "IC50", "setting": "[1]", "result": 41, "unit": "nM"}]}]}
